Results published in PubChem BioAssay (NCI).
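Following 48 hours of exposure in 96-well plates, responses at five concentrations were used to interpolate endpoints linearly. TGI is the concentration that stops growth completely.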

Assays:
Assay in all cases: inhibition of tumour cell growth, NCI panel, 48 h
MDA-MB-435 = system: MDA-MB-435
LOX IMVI melanoma = system: LOX IMVI melanoma
OVCAR-4 ovarian = system: OVCAR-4 ovarian
UO-31 renal = system: UO-31 renal
NCI/ADR-RES ovarian = system: NCI/ADR-RES ovarian
SF-268 CNS = system: SF-268 CNS
T-47D breast = system: T-47D breast
SNB-19 CNS = system: SNB-19 CNS
RXF 393 renal = system: RXF 393 renal
OVCAR-5 ovarian = system: OVCAR-5 ovarian
K-562 leukemia = system: K-562 leukemia
SK-MEL-5 melanoma = system: SK-MEL-5 melanoma
IGROV1 ovarian = system: IGROV1 ovarian
SNB-75 CNS = system: SNB-75 CNS
MDA-MB-231 breast = system: MDA-MB-231 breast
ACHN renal = system: ACHN renal
MDA-N = system: MDA-N
COLO 205 colon = system: COLO 205 colon
HS 578T breast = system: HS 578T breast
HT29 colon = system: HT29 colon
SK-MEL-28 melanoma = system: SK-MEL-28 melanoma
NCI-H460 lung = system: NCI-H460 lung
OVCAR-8 ovarian = system: OVCAR-8 ovarian
CAKI-1 renal = system: CAKI-1 renal
RPMI-8226 leukemia = system: RPMI-8226 leukemia
CCRF-CEM leukemia = system: CCRF-CEM leukemia
MOLT-4 leukemia = system: MOLT-4 leukemia
A549 NSCLC = system: A549 NSCLC
HL-60(TB) leukemia = system: HL-60(TB) leukemia
UACC-257 melanoma = system: UACC-257 melanoma
HCC-2998 colon = system: HCC-2998 colon
786-0 renal = system: 786-0 renal
NCI-H226 lung = system: NCI-H226 lung
MCF7 breast = system: MCF7 breast
TK-10 renal = system: TK-10 renal
KM12 colon = system: KM12 colon
UACC-62 melanoma = system: UACC-62 melanoma
M14 melanoma = system: M14 melanoma
NCI-H23 lung = system: NCI-H23 lung
U251 CNS = system: U251 CNS
SK-OV-3 ovarian = system: SK-OV-3 ovarian
BT-549 breast = system: BT-549 breast
DU-145 prostate = system: DU-145 prostate
SK-MEL-2 melanoma = system: SK-MEL-2 melanoma
SF-295 CNS = system: SF-295 CNS
PC-3 prostate = system: PC-3 prostate
HOP-92 NSCLC = system: HOP-92 NSCLC
SW-620 colon = system: SW-620 colon
SF-539 CNS = system: SF-539 CNS
HCT-116 colon = system: HCT-116 colon
HOP-62 NSCLC = system: HOP-62 NSCLC
OVCAR-3 ovarian = system: OVCAR-3 ovarian
A498 renal = system: A498 renal
HCT-15 colon = system: HCT-15 colon
MALME-3M melanoma = system: MALME-3M melanoma
NCI-H522 lung = system: NCI-H522 lung
EKVX NSCLC = system: EKVX NSCLC
SN12C renal = system: SN12C renal

Measured: TGI

COc1ccc(OC)c2c1C(=O)C(=O)C(Cl)=C2O
not listed: EKVX NSCLC | SN12C renal
> 100 µM: all other assays above

CC1=NN(C(=O)CC(=O)N(C(=O)c2ccccc2)c2ccc(Cl)cc2)C(=O)C1N=Nc1ccc([N+](=O)[O-])cc1 (stereo not drawn)
not listed: M14 melanoma
> 10 µM: all other assays above
